Data set [1] has as its system Pf3D7 chloroquine-sensitive strain. Kind of data set: SYBR green I based fluorescence growth inhibition assay, Pf3D7. It is filed as cell-based, Plasmodium falciparum. To be noted: for IC50: Plasmodium falciparum, chloroquine-sensitive strain, synchronized late trophozoite parasites, SYBR Green, triplicate, mean ± SD, read-out: IC50 (µM) against Pf3D7; for growth inhibition against Pf3D7 (in words): screen at 1 µM and 10 µM, vs untreated control (Fig. S1). As to the method:
Growth of one intraerythrocytic cycle of Pf was monitored after treated with compounds whereas untreated parasites were considered as control.
(§1) The percent growth inhibition of the parasites was evaluated by SYBR Green assay.
(§2) Pf3D7 and PfRKL-9 were cultured by following procedure reported by Trager and Jensen[33]. […] In order to examine the morphological changes in the parasite, a blood film must be prepared. A thin blood film was air-dried, fixed with methanol, and allowed to dry before staining. […] Light microscopy analysis was carried out to evaluate the inhibitory effect of compounds at different concentrations against Pf3D7 and PfRKL-9.
SYBR green I based fluorescence assay was performed to measure the growth inhibition effect of the 26 compounds and further dose dependent assay against Pf3D7, and PfRKL-9 (Indian field strain, source- NIMR, New Delhi, India) was carried out at different concentrations. […] Parasitized erythrocytes were treated with different concentrations of compounds ranging from 1 µM to 10 µM, whereas DMSO worked as a control. Triplicate wells of parasitized erythrocytes treated with compounds were seeded in 96 well microtiter plate following incubation at 37 °C for one cycle of parasite growth. […] Growth inhibition (%) was calculated as follows: % Inhibition = [1 − % Parasitemia (Treatment)/% Parasitemia (Control)] *100. Data were expressed as mean ± SD.

Data set [2] concerns embryonic kidney cell lines, HEK-293. Particulars: human, 48 h. The procedure: Cytotoxicity against human embryonic kidney cell line (ATCC) was determined using MTT dye[35]. In order to measuring the cytotoxicity of the compounds we used MTT dye to detect live/dead cells. […] cells were stored at 37 °C, 5% CO2 in […] sterile culture flasks (Corning) in complete Dulbecco's Modified Eagle Medium (DMEM) culture medium (a) supplemented with 5% Fetal Bovine Serum (FBS), gentamicin ([…]), with changing the medium thrice a week. The monolayers were washed, counted, diluted in complete medium, distributed in 96-well microtiter plates (5000 cells/well), followed by incubation for another 24 h at 37 °C. The test compounds and DMSO were added in triplicate. After a 48 h incubation at 37 °C, the supernatant was removed and 100 µL of MTT solution in complete DMEM was added to each well, followed by 2 h incubation at 37 °C. The culture plates were read in a spectrophotometer (Tecan infinite M200, nanoquant, UK) with a 490 nm filter, and the cytotoxic concentrations were determined based on a dose response curve.

The test system of the next data set is human RBCs. Put plainly: Hemolytic activity on human RBCs. It is filed as cell-based. To be noted: 0.5-20 µM, 10% (v/v) RBC suspension, 1 h, absorbance at 415 nm. As to the method:
Effect of compounds on human RBCs was checked with the help of spectrophotometry by measuring the lysis of human red blood cells (hRBCs). Compounds were tested at 0.5, 1, 5, 10 and 20 μM concentrations with 10% (v/v) RBCs suspension for 1 h and observed the percentage of RBCs lysis by compounds 7, 16, 17, 18 and 1.
Human RBCs were from Rotary Blood Bank, Tughlakabad Institutional Area, New Delhi, India. Effect of compounds on RBCs was checked by hemolytic assay. In brief, RBCs suspension with 10% (v/v) washed with 1 × Phosphate-buffered saline (PBS) (pH 7.4) and again resuspended in 1 × PBS. RBCs suspension was incubated with compounds 7, 16, 17, 18 and 1 at different concentrations (0.5, 1, 5, 10 and 20 μM) for 1 h at 37 °C. Samples were centrifuged and supernatant was taken for absorbance at 415 nm. Triton X-100 with 1% (v/v) was used as a positive control. Experiment was done in triplicate.

In data set [3] the test system is Mitochondrial membrane potential of the malaria parasites. Put plainly: JC-1 mitochondrial membrane potential assay. It is filed as cell-based, Plasmodium falciparum. Particulars: parasites treated with IC50 concentration for 3 h; untreated control 7.04 ± 1.30. An excerpt: Mitochondrial membrane potential is a marker of mitochondria’s functional status. Modification in mitochondrial membrane potential leading to mitochondrial dysfunction triggers cell death[25],[26]. Mitochondrial dysfunction was detected by using membrane permeant JC-1 dye. JC-1 is a cationic probe, due to electronegative environment inside the functionally active mitochondria with high Δψm, it aggregates in energised mitochondria and gives red color fluorescence at 590 nm, but in case of low Δψm (depolarized state), JC-1 remain in monomeric form and gives green color fluorescence at […]. Decreased ratio of red/green fluorescence intensity of compound treated sample as compared to untreated control indicates depolarized mitochondrial membrane[27],[28]. The damage to the parasite's mitochondria after treatment with compounds 7, 16, 17, 18 and 1 was measured according to the method reported previously. Because of lipophilic nature of the JC-1, it is cell permeable and emits a green signal (525 nm) in the cytoplasm, but the high transmembrane potential of functional mitochondria causes it to aggregate and emit a red signal (590 nm). […]. Mitochondrial membrane potential of the malaria parasites was determined by using MitoProbe™ JC-1 assay as described previously. In brief, trophozoite stage parasites (10–12% parasitemia) were treated with IC50 concentration of compounds 7, 16, 17, 18 and 1 for 3 h at 37 °C in the CO2 incubator. Samples were washed with 1 × PBS by centrifugation at 500 × g for 2 min at RT. Freshly prepared JC-1 dye was added to each sample with working concentration of 5 µg/mL. Incubation was done for 30 min at 37 °C in a CO2 incubator. Cells were washed twice with 1 × PBS. Spectrofluorometer was used to observe mitochondrial membrane potential by measuring fluoroscence intensities from the parasite lysate at wavelength of excitation (520 nm) and emission (590 nm) respectively. In vivo cell imaging was done with the help of Olympus fluoview 3000 confocal microscopy. Live cell imaging was observed under a 100X objective (oil immersion) and band pass filter at 355–460 nm. Experiments were repeated thrice and only representative figures are shown (Fig. 6).

Data set [4] deals with chloroquine resistant strain PfRKL-9. Kind of data set: SYBR green I based fluorescence growth inhibition assay, PfRKL-9. It is filed as cell-based. Particulars: Plasmodium falciparum, synchronized late trophozoite parasites, triplicate, mean ± SD, read-out: IC50 (µM) against PfRKL-9. As to the method: as §1, §2
SYBR green I based fluorescence assay was performed to measure the growth inhibition effect of the 26 compounds and further dose dependent assay against Pf3D7, and PfRKL-9 (Indian field strain, source- NIMR, New Delhi, India) was carried out at different concentrations. In brief, Pf3D7 and PfRKL-9 parasitized erythrocytes (trophozoite stage with 1% parasitemia) were diluted with noninfected erythrocytes at a constant 2% hematocrit in culture medium. Parasitized erythrocytes were treated with different concentrations of compounds ranging from 1 µM to 10 µM, whereas DMSO worked as a control. Triplicate wells of parasitized erythrocytes treated with compounds were seeded in 96 well microtiter plate following incubation at 37 °C for one cycle of parasite growth. […] Growth inhibition (%) was calculated as follows: % Inhibition = [1 − % Parasitemia (Treatment)/% Parasitemia (Control)] *100. Data were expressed as mean ± SD.

`CC(=O)OC[C@H]1O[C@@H](SC[C@@H]2[C@@H](O[Si](C)(C)C(C)(C)C)[C@H](n3ccc(=O)[nH]c3=O)O[C@@H]2CO[Si](C)(C)C(C)(C)C)[C@H](OC(C)=O)[C@@H](OC(C)=O)[C@H]1OC(C)=O` [Compound 16, 1-[3’-Deoxy-3’-C-(-2,3,4,6-tetra-O-acetyl-β-D-galactopyranosyl-sulfanylmethyl)-2’,5’-di-O-(tert-butyldimethylsilyl)-β-D-xylofuranosyl]-uracil]: in data set [1], the IC50 – broadly, the concentration at which inhibition is half-maximal – amounted to 1.78 ± 1.3 µM and the “growth inhibition against Pf3D7 (in words)” value (shortened to “growth inhibition”) was “significant growth inhibition in a dose dependent manner”. The “Cell survival (%) at 500 µM” value in data set [2] is listed as 52%. Also, the “lysis of human RBCs (in words)” value in the data set on human RBCs is listed as “no significant lysis”. Also, in data set [3], the JC-1 red/green ratio came out at 4.98 ± 1.77. For the same compound, the half-inhibitory concentration (IC50) in data set [4] amounted to 9.55 ± 1.7 µM.

In the case of `CC(=O)O[C@@H]1[C@@H](OC(C)=O)[C@H](SC[C@@H]2[C@@H](O[Si](C)(C)C(C)(C)C)[C@H](n3ccc(=O)[nH]c3=O)O[C@@H]2CO[Si](C)(C)C(C)(C)C)OC[C@H]1OC(C)=O` [Compound 17, 1-[3’-Deoxy-3’-C-(-2,3,4-tri-O-acetyl-β-D-xylopyranosyl-sulfanylmethyl)-2’,5’-di-O-(tert-butyldimethylsilyl)-β-D-xylofuranosyl]-uracil], in data set [1], the IC50 amounted to 1.33 ± 1.07 µM and the “growth inhibition” value was “significant growth inhibition in a dose dependent manner”. In addition, the “Cell survival (%) at 500 µM” value in data set [2] is recorded as 51%. Moreover, the “lysis of human RBCs (in words)” value in the data set with human RBCs is on record as “no significant lysis”. In data set [3], the JC-1 red/green ratio is given as 6.28 ± 1.55. The IC50 in data set [4] was 1.84 ± 1.06 µM.

As for `CC(=O)N[C@@H]1[C@@H](OC(C)=O)[C@H](OC(C)=O)[C@@H](COC(C)=O)O[C@H]1SC[C@@H]1[C@@H](O[Si](C)(C)C(C)(C)C)[C@H](n2cc(C)c(=O)[nH]c2=O)O[C@@H]1CO[Si](C)(C)C(C)(C)C` [Compound 18, 1-[3’-Deoxy-3’-C-((2-acetamido-3,4,6-tri-O-acetyl-β-D-glucopyranosylthio)methyl)-2’,5’-di-O-(tert-butyldimethylsilyl)-β-D-xylofuranosyl]-5-methyluracil], in data set [1], the IC50 was found to be 1.15 ± 1.5 µM and the “growth inhibition” value is on record as “significant growth inhibition in a dose dependent manner”. Moreover, the “Cell survival (%) at 500 µM” value in data set [2] is recorded as 60%. Moreover, in the data set with human RBCs, the “lysis of human RBCs (in words)” value is recorded as “no significant lysis”. The JC-1 red/green ratio in data set [3] is on record as 5.53 ± 1.40. Further, the IC50 in data set [4] stood at 2.21 ± 1.3 µM.

The values above are taken from paper PMC10382589, “In vitro and in vivo antiplasmodial evaluation of sugar-modified nucleoside analogues” (Scientific Reports, 2023).
